In PubChem BioAssay (NCI):
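Five compound concentrations were applied to cells in 96-well plates for 48 hours; endpoints were derived by simple linear interpolation of the resulting dose-response curve. TGI marks complete inhibition of growth.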

Assays:
Assay in all cases: NCI tumour cell line growth inhibition, 48 h
[1] = tested on: XF 498 CNS
[2] = tested on: NCI-H226 lung
[3] = tested on: HCC-2998 colon
[4] = tested on: MOLT-4 leukemia
[5] = tested on: P388/ADR leukemia
[6] = tested on: M19-MEL melanoma
[7] = tested on: KM20L2 colon
[8] = tested on: OVCAR-3 ovarian
[9] = tested on: HCT-116 colon
[10] = tested on: SF-268 CNS
[11] = tested on: A498 renal
[12] = tested on: SW-620 colon
[13] = tested on: MALME-3M melanoma
[14] = tested on: UO-31 renal
[15] = tested on: DLD-1 colon
[16] = tested on: SK-MEL-5 melanoma
[17] = tested on: HOP-92 NSCLC
[18] = tested on: OVCAR-5 ovarian
[19] = tested on: UACC-62 melanoma
[20] = tested on: HOP-62 NSCLC
[21] = tested on: NCI/ADR-RES ovarian
[22] = tested on: DMS 114 small cell lung
[23] = tested on: U251 CNS
[24] = tested on: SF-295 CNS
[25] = tested on: NCI-H522 lung
[26] = tested on: DMS 273 small cell lung
[27] = tested on: SK-OV-3 ovarian
[28] = tested on: SNB-75 CNS
[29] = tested on: A549 NSCLC
[30] = tested on: NCI-H460 lung
[31] = tested on: HL-60(TB) leukemia
[32] = tested on: K-562 leukemia
[33] = tested on: RXF 393 renal
[34] = tested on: LOX IMVI melanoma
[35] = tested on: HCT-15 colon
[36] = tested on: OVCAR-4 ovarian
[37] = tested on: KM12 colon
[38] = tested on: SNB-78 CNS
[39] = tested on: COLO 205 colon
[40] = tested on: SNB-19 CNS
[41] = tested on: OVCAR-8 ovarian
[42] = tested on: SK-MEL-2 melanoma
[43] = tested on: IGROV1 ovarian
[44] = tested on: RPMI-8226 leukemia
[45] = tested on: SN12K1 renal
[46] = tested on: NCI-H23 lung
[47] = tested on: CCRF-CEM leukemia
[48] = tested on: EKVX NSCLC
[49] = tested on: HT29 colon
[50] = tested on: SN12C renal
[51] = tested on: P388 leukemia
[52] = tested on: HOP-18 NSCLC
[53] = tested on: SF-539 CNS
[54] = tested on: MCF7 breast
[55] = tested on: SK-MEL-28 melanoma
[56] = tested on: UACC-257 melanoma
[57] = tested on: SR leukemia
[58] = tested on: ACHN renal
[59] = tested on: TK-10 renal
[60] = tested on: M14 melanoma
[61] = tested on: 786-0 renal
[62] = tested on: LXFL 529 NSCLC
[63] = tested on: CAKI-1 renal

Measured: TGI

COC(=O)C(C/C=C(\C)c1ccc(Cl)cc1)C(C)=O (stereo not given)
63.1 µM: [21]
> 94.6 µM: [28]
92.3 µM: [25]
51.7 µM: [16]
> 61.7 µM: [45]
> 95.9 µM: [33]
> 91 µM: [2]
> 71.3 µM: [56]
> 90.6 µM: [29]
28.1 µM: [34]
38.3 µM: [31]
> 76.5 µM: [5]
> 73.8 µM: [22]
> 77.1 µM: [49]
46 µM: [51]
> 69 µM: [44]
32.9 µM: [42]
> 86.6 µM: [23]
64.2 µM: [17]
> 90.3 µM: [18]
85.4 µM: [14]
> 72 µM: [26]
> 92.5 µM: [6]
41.2 µM: [4]
not listed: [57] | [58] | [59] | [60] | [61] | [62] | [63]
> 100 µM: all other assays above

CC(=O)NC1C(OCc2ccccc2)OC(COC(=O)CCCCCCCCCCNc2ccc([N+](=O)[O-])c3[nH]c4ccccc4c(=O)c23)C(O)C1OC(C)C(=O)NC(C)C(=O)NC(CCC(N)=O)C(=O)OCc1ccccc1 (stereo not given)
not listed: [5] | [13] | [17] | [21] | [33] | [45] | [47] | [51] | [54]
> 100 µM: all other assays above
